Experiments:
[1] = tested on: A. fumigatus CEA10 reference strain; assay: Fluconazole potentiator screen: MIC by CLSI microbroth dilution with and without fluconazole; format: cell-based, Aspergillus fumigatus; conditions: 18 h; for MIC: Aspergillus fumigatus, read-out: MIC (ug/mL) (−) Fluc; for MIC (ug/mL) (+) Fluc: with 32 μg/ml fluconazole, normoxia, GMM, 37 °C
[2] = tested on: Aspergillus fumigatus SrbA pathway; conditions: phenotype of SrbA pathway inhibition, previously published; cited from earlier work

SMILES	MIC [1] [µg/mL]	MIC (ug/mL) (+) Fluc [1] [µg/mL]	MIC to fluconazole [2] [mg/L]
O=S(=O)(NC1CCC(Cc2ccc(CN3CCOCC3)cc2)CC1)c1ccc(F)cc1 (stereo not shown) [MBX-8283]	> 22	>22	
O=S(=O)(NC1CCN(Cc2ccc(CN3CCOCC3)cc2)CC1)c1ccc(F)cc1 [MBX-8284]	> 22	>22	
O=C(c1ccsc1)N1CC2(CC(CCOc3ccncc3)C2)C1 [MBX-8285]	4.11	2.05	
O=C(c1ccsc1)N1CC(Cc2ccc(COc3ccncc3)cc2)C1 [MBX-8305]	9.1	4.50	
O=S(=O)(c1ccsc1)N1CC2(CC(CCOc3ccncc3)C2)C1 [MBX-8306]	9.1	4.50	
O=S(=O)(c1ccsc1)N1CCc2cc(COc3ccncc3)ccc2C1 [MBX-8307]	4.8	2.40	
O=C(c1ccsc1)N1CCc2cc(COc3ccncc3)ccc2C1 [MBX-8308]	4.3	1.90	
O=C(c1ccsc1)N1CCC(Oc2ccc(COc3ccncc3)cc2)CC1 [MBX-8309]	19	19.00	
O=S(=O)(c1cccs1)N1CCC2(CC1)CN(CCOc1ccncc1)CCO2 [MBX-8310]	21	5.20	
O=S(=O)(NC1CC2(CC(Cc3ccc(CN4CCOCC4)cc3)C2)C1)c1ccc(F)cc1 (stereo not shown) [MBX-8311]	19	22.00	
O=C(NC1CCN(Cc2ccc(COc3ccncc3)cc2)CC1)c1ccsc1 [MBX-8312]	> 20	>20	
O=C(c1ccsc1)N1CCC(Cc2ccc(COc3ccncc3)nc2)CC1 [MBX-8323]	2.4	1.20	
O=S(=O)(c1ccc(F)cc1)N1CCC(Cc2ccc(CN3CCOCC3)cc2F)CC1 [MBX-8324]	1.2	0.17	
O=S(=O)(c1ccc(F)cc1)C1CCN(Cc2ccc(CN3CCOCC3)cc2)CC1 [MBX-8325]	> 20	>20	
O=S(=O)(c1ccc(F)cc1)N1CC2(CC(Cc3ccc(CN4CCOCC4)cc3)C2)C1 [MBX-8345]	> 22	11.00	
Cc1cc(CN2CCOCC2)ccc1CC1CCN(S(=O)(=O)c2ccc(F)cc2)CC1 [MBX-8346]	1.1	0.15	
O=S(=O)(c1ccc(F)cc1)N1CCC(Cc2ccc(CC3CCOCC3)cc2)CC1 [MBX-8347]	> 21	>21	
O=C1c2ccsc2CCN1Cc1ccc(CCOc2ccncc2)cc1 [MBX-8354]	9	14.00	
O=S(=O)(c1cccc(F)c1)N1CCC(C(O)c2ccc(CN3CCOCC3)cc2)CC1 (stereo not shown) [MBX-8355]	> 22	>22	
O=S(=O)(c1ccc(F)cc1)N1CCC(Cc2ccc(CN3CCOCC3)c(F)c2)CC1 [MBX-8356]	0.6	0.09	
CC(c1ccc(CC2CCN(S(=O)(=O)c3ccc(F)cc3)CC2)cc1)N1CCOCC1 (stereo not shown) [MBX-8357]	> 22	5.60	
CC(c1ccc(CC2CCN(S(=O)(=O)c3cccc(F)c3)CC2)cc1)N1CCOCC1 (stereo not shown) [MBX-8358]	2.79	0.44	
CC(C1CCN(Cc2ccc(CN3CCOCC3)cc2)CC1)S(=O)(=O)c1ccc(F)cc1 (stereo not shown) [MBX-8359]	> 23	>23	

SMILES	MIC [1] [µg/mL]	MIC (ug/mL) (+) Fluc [1] [µg/mL]	MIC to fluconazole [2] [mg/L]
N=S(=O)(c1ccc(F)cc1)N1CCC(Cc2ccc(CN3CCOCC3)cc2)CC1 (stereo not shown) [MBX-8389]	> 43	>43	
O=S(=O)(c1ccc(F)cc1)N1CCC(Cc2ccc(CN3CCOCC3)cc2)C1 (stereo not shown) [MBX-8390]	2	0.40	
O=S(=O)(c1ccc(F)cc1)N1CCC(Cc2ccc(COc3ccncc3)cc2)C1 (stereo not shown) [MBX-8391]	1	0.20	
O=C(c1ccc(C(F)(F)F)nc1)N1CCC(Cc2ccc(CN3CCOCC3)cc2)C1 (stereo not shown) [MBX-8392]	> 43	>43	
O=S(=O)(c1ccc(C(F)(F)F)nc1)N1CCC(Cc2ccc(COc3ccncc3)cc2)C1 (stereo not shown) [MBX-8393]	> 47	>47	
O=C(c1cccs1)N1CCC2(CC1)CC(CCOc1ccncc1)CCO2 (stereo not shown) [MBX-8394]	19	9.70	
O=S(=O)(c1ccc(F)cc1)N1CCC(Cc2ccc(Cc3ccncc3)cc2)CC1 [MBX-8428]	10.6	6.37	
O=C(c1ccsc1)N1CCC(Cc2ccc(CN3CCOCC3)cc2)C1 (stereo not shown) [MBX-8429]	18.5	18.53	
O=C(c1ccsc1)N1CC[C@@H](Cc2ccc(COc3ccncc3)cc2)C1 [MBX-8431]	3.78	1.14	
O=C(c1ccsc1)N1CC[C@H](Cc2ccc(COc3ccncc3)cc2)C1 [MBX-8432]	4.16	1.51	
O=C(c1ccc(Cl)s1)N1CCC2(CC1)CC(CCOc1ccncc1)CCO2 (stereo not shown) [MBX-8433]	2.53	0.84	
O=S(=O)(c1cccs1)N1CCC2(CCc3cc(Oc4ccncc4)ccc3O2)CC1 [MBX-8435]	> 22	>22	
CN1CCN(Cc2ccc(CC3CCN(S(=O)(=O)c4ccc(F)cc4)CC3)cc2)CC1 [MBX-8436]	4.46	0.45	
O=S(=O)(c1ccc(F)cc1)N1CCC(Cc2ccc(CN3CCN(CC(F)(F)F)CC3)cc2)CC1 [MBX-8438]	> 25	>25	
CN(C)Cc1ccc(CC2CCN(S(=O)(=O)c3ccc(F)cc3)CC2)cc1 [MBX-8439]	9.76	0.78	
O=C(c1ccsc1)N1CCC(Cc2ccc(COc3ccncn3)cc2)CC1 [MBX-8529]	9.84	>15	
O=C(c1ccsc1)N1CCC(Cc2ccc(COc3ccncc3)cn2)CC1 [MBX-8619]	4.92	1.23	
O=S(=O)(c1ccc(F)cc1)N1CCC(Cc2ccc(CN3CCN4CCC[C@H]4C3)cc2)CC1 [MBX-8668]	11.8	1.47	
O=S(=O)(c1ccc(F)cc1)N1CCC(Cc2ccc(CN3CCn4cncc4C3)cc2)CC1 [MBX-8684]	7.38	1.30	
CN1CCc2cc(CC3CCN(S(=O)(=O)c4ccc(F)cc4)CC3)ccc2C1 [MBX-8700]	8.97	1.26	
CN1CCN(c2ccc(CC3CCN(S(=O)(=O)c4ccc(F)cc4)CC3)cc2)CC1 [MBX-8701]	0.67	0.19	
O=C(c1ccsc1)N1CCN(Cc2ccc(-c3ccncc3)cc2)CC1 [MBX-8702]	1.14	0.32	
OC(Cn1cncn1)(Cn1cncn1)c1ccc(F)cc1F [fluconazole]			< 8
